This data set has as its system CCRIS mutagenicity, Ames/micronucleus/aberration tests. Kind of data set: CCRIS mutagenicity studies.
Setting [1] is: Test System: AMES SALMONELLA TYPHIMURIUM, Strain/Indicator: TA98, Metabolic Activation: NONE, Method: STANDARD PLATE.

The structures appear in SMILES notation. Active and inactive are the calls of the source. The rule behind the calls is not given here.

`CCN(CC)c1ccccc1`: the mutagenic call is “inactive; negative” (Test System: AMES SALMONELLA TYPHIMURIUM, Strain/Indicator: TA97, Metabolic Activation: HAMSTER, LIVER, S-9, AROCLOR 1254 (10 OR 30%), Method: PREINCUBATION); “inactive; negative” (Test System: AMES SALMONELLA TYPHIMURIUM, Strain/Indicator: TA97, Metabolic Activation: NONE, Method: PREINCUBATION); “inactive; negative” (Test System: AMES SALMONELLA TYPHIMURIUM, Strain/Indicator: TA97, Metabolic Activation: RAT, LIVER, S-9, AROCLOR 1254 (10 OR 30%), Method: PREINCUBATION); “inactive; negative” (Test System: AMES SALMONELLA TYPHIMURIUM, Strain/Indicator: TA98, Metabolic Activation: HAMSTER, LIVER, S-9, AROCLOR 1254 (10 OR 30%), Method: PREINCUBATION); “inactive; negative” (Test System: AMES SALMONELLA TYPHIMURIUM, Strain/Indicator: TA98, Metabolic Activation: HAMSTER, LIVER, S-9, PHENOBARBITAL AND BETA-NAPHTHOFLAVONE, Method: PREINCUBATION); “inactive; negative” (Test System: AMES SALMONELLA TYPHIMURIUM, Strain/Indicator: TA98, Metabolic Activation: NONE, Method: PREINCUBATION). Besides, the mutagenic call reads like this: (Test System: AMES SALMONELLA TYPHIMURIUM, Strain/Indicator: TA98, Metabolic Activation: RAT, LIVER, S-9, AROCLOR 1254 (10 OR 30%), Method: PREINCUBATION) “inactive; negative”; (Test System: AMES SALMONELLA TYPHIMURIUM, Strain/Indicator: TA100, Metabolic Activation: HAMSTER, LIVER, S-9, AROCLOR 1254 (10 OR 30%), Method: PREINCUBATION) “inactive; negative”; (Test System: AMES SALMONELLA TYPHIMURIUM, Strain/Indicator: TA100, Metabolic Activation: HAMSTER, LIVER, S-9, PHENOBARBITAL AND BETA-NAPHTHOFLAVONE, Method: PREINCUBATION) “inactive; negative”; (Test System: AMES SALMONELLA TYPHIMURIUM, Strain/Indicator: TA100, Metabolic Activation: NONE, Method: PREINCUBATION) “inactive; negative”; (Test System: AMES SALMONELLA TYPHIMURIUM, Strain/Indicator: TA100, Metabolic Activation: RAT, LIVER, S-9, AROCLOR 1254 (10 OR 30%), Method: PREINCUBATION) “inactive; negative”; (Test System: AMES SALMONELLA TYPHIMURIUM, Strain/Indicator: TA102, Metabolic Activation: HAMSTER, LIVER, S-9, PHENOBARBITAL AND BETA-NAPHTHOFLAVONE, Method: PREINCUBATION) “inactive; negative”. For the same compound, the mutagenic call was “inactive; negative” (Test System: AMES SALMONELLA TYPHIMURIUM, Strain/Indicator: TA102, Metabolic Activation: NONE, Method: PREINCUBATION); “inactive; negative” (Test System: AMES SALMONELLA TYPHIMURIUM, Strain/Indicator: TA104, Metabolic Activation: HAMSTER, LIVER, S-9, PHENOBARBITAL AND BETA-NAPHTHOFLAVONE, Method: PREINCUBATION); “inactive; negative” (Test System: AMES SALMONELLA TYPHIMURIUM, Strain/Indicator: TA104, Metabolic Activation: NONE, Method: PREINCUBATION); “inactive; negative” (Test System: AMES SALMONELLA TYPHIMURIUM, Strain/Indicator: TA1535, Metabolic Activation: HAMSTER, LIVER, S-9, AROCLOR 1254 (10 OR 30%), Method: PREINCUBATION); “inactive; negative” (Test System: AMES SALMONELLA TYPHIMURIUM, Strain/Indicator: TA1535, Metabolic Activation: HAMSTER, LIVER, S-9, PHENOBARBITAL AND BETA-NAPHTHOFLAVONE, Method: PREINCUBATION); “inactive; negative” (Test System: AMES SALMONELLA TYPHIMURIUM, Strain/Indicator: TA1535, Metabolic Activation: NONE, Method: PREINCUBATION). The mutagenic call was “inactive; negative” (Test System: AMES SALMONELLA TYPHIMURIUM, Strain/Indicator: TA1535, Metabolic Activation: RAT, LIVER, S-9, AROCLOR 1254 (10 OR 30%), Method: PREINCUBATION); “inactive; negative” (Test System: AMES SALMONELLA TYPHIMURIUM, Strain/Indicator: TA1537, Metabolic Activation: HAMSTER, LIVER, S-9, PHENOBARBITAL AND BETA-NAPHTHOFLAVONE, Method: PREINCUBATION); “inactive; negative” (Test System: AMES SALMONELLA TYPHIMURIUM, Strain/Indicator: TA1537, Metabolic Activation: NONE, Method: PREINCUBATION); “inactive; negative” (Test System: E. COLI, Strain/Indicator: WP2UVRA/PKM101, Metabolic Activation: HAMSTER, LIVER, S-9, PHENOBARBITAL AND BETA-NAPHTHOFLAVONE, Method: PREINCUBATION); “inactive; negative” (Test System: E. COLI, Strain/Indicator: WP2UVRA/PKM101, Metabolic Activation: NONE, Method: PREINCUBATION); “inactive; negative” (Test System: E. COLI, Strain/Indicator: WP2UVRA, Metabolic Activation: HAMSTER, LIVER, S-9, PHENOBARBITAL AND BETA-NAPHTHOFLAVONE, Method: PREINCUBATION). In addition, the mutagenic call was “inactive; negative” (Test System: E. COLI, Strain/Indicator: WP2UVRA, Metabolic Activation: NONE, Method: PREINCUBATION) and “inactive; negative” (Test System: UDS RODENT HEPATOCYTES, Strain/Indicator: THY INCORP (NON-S-PHASE), Metabolic Activation: NONE, Method: AUTORADIOGRAPHY).
Take `c1ccc2c(c1)-c1c3ccccc3cc3cc4ccccc4c-2c13`: the mutagenic call (Test System: HUMAN H1A1V2 CELLS, Strain/Indicator: TK LOCUS, Metabolic Activation: NONE, Method: SUSPENSION/PLATE) was “active; positive”.
As to `O=[N+]([O-])c1ccc2cn[nH]c2c1`, the mutagenic call under setting [1] is “active; positive”.
For the compound `CCS(=O)(=O)CCn1c([N+](=O)[O-])cnc1C`, the mutagenic call by setting is: (Test System: AMES SALMONELLA TYPHIMURIUM, Strain/Indicator: TA98, Metabolic Activation: RAT, LIVER, S-9, AROCLOR 1254, Method: STANDARD PLATE) “inactive; negative”; (Test System: AMES SALMONELLA TYPHIMURIUM, Strain/Indicator: TA100(1,8-DNP6), Metabolic Activation: NONE, Method: PREINCUBATION (AEROBIC)) “active; positive”; (Test System: AMES SALMONELLA TYPHIMURIUM, Strain/Indicator: TA100(NR), Metabolic Activation: NONE, Method: PREINCUBATION (AEROBIC)) “active; positive”; (Test System: AMES SALMONELLA TYPHIMURIUM, Strain/Indicator: TA100(NR), Metabolic Activation: NONE, Method: PREINCUBATION (ANAEROBIC)) “active; positive”; (Test System: AMES SALMONELLA TYPHIMURIUM, Strain/Indicator: TA100(NR), Metabolic Activation: RAT, LIVER, S-9, AROCLOR 1254, Method: PREINCUBATION (AEROBIC)) “active; positive”; (Test System: AMES SALMONELLA TYPHIMURIUM, Strain/Indicator: TA100(NR), Metabolic Activation: RAT, LIVER, S-9, AROCLOR 1254, Method: PREINCUBATION (ANAEROBIC)) “active; positive”. In addition, the mutagenic call by setting is: (Test System: AMES SALMONELLA TYPHIMURIUM, Strain/Indicator: TA100(NR), Metabolic Activation: RAT, LIVER, S-9, AROCLOR 1254, Method: STANDARD PLATE) “active; positive”; (Test System: AMES SALMONELLA TYPHIMURIUM, Strain/Indicator: TA100, Metabolic Activation: NONE, Method: PREINCUBATION (AEROBIC)) “active; positive”; (Test System: AMES SALMONELLA TYPHIMURIUM, Strain/Indicator: TA100, Metabolic Activation: NONE, Method: PREINCUBATION (ANAEROBIC)) “active; positive”; (Test System: AMES SALMONELLA TYPHIMURIUM, Strain/Indicator: TA100, Metabolic Activation: NONE, Method: STANDARD PLATE) “active; positive”; (Test System: AMES SALMONELLA TYPHIMURIUM, Strain/Indicator: TA100, Metabolic Activation: RAT, LIVER, S-9, AROCLOR 1254, Method: PREINCUBATION (AEROBIC)) “active; positive”; (Test System: AMES SALMONELLA TYPHIMURIUM, Strain/Indicator: TA100, Metabolic Activation: RAT, LIVER, S-9, AROCLOR 1254, Method: PREINCUBATION (ANAEROBIC)) “active; positive”. Further, the mutagenic call is “active; positive” (Test System: AMES SALMONELLA TYPHIMURIUM, Strain/Indicator: TA100, Metabolic Activation: RAT, LIVER, S-9, AROCLOR 1254, Method: STANDARD PLATE); “active; positive” (Test System: AMES SALMONELLA TYPHIMURIUM, Strain/Indicator: UTH8414, Metabolic Activation: NONE, Method: STANDARD PLATE); “active; positive” (Test System: AMES SALMONELLA TYPHIMURIUM, Strain/Indicator: YG1029, Metabolic Activation: NONE, Method: PREINCUBATION (AEROBIC)).
`c1ccc2c(c1)-c1ccccc1C1OC21` (stereo not given): the mutagenic call under setting [1] was “active; positive”.
In the case of `c1ccc2c(c1)[nH]c1cnccc12`, the mutagenic call (Test System: AMES SALMONELLA TYPHIMURIUM, Strain/Indicator: TA98, Metabolic Activation: RAT, LIVER, S-9, AROCLOR 1254, Method: PREINCUBATION) was “inactive; negative”.

Values taken from PubChem BioAssay AID1259407 (Chemical Carcinogenesis Research Information System (CCRIS), 2018).
